Reference: patent US20220009920A1 (GB005, Inc., priority 2020, published 2022)

Experiments:
Experiment in all cases: Large panel kinase profiling
Format in all cases: biochemical
Conditions in all cases: 1 μM test article, 1 mM ATP
BMP2K/BIKE = BMP2K/BIKE (Homo sapiens, UniProt Q9NSY1)
Procedure: (§1) Large panel kinase profiling was performed at AssayQuant Technologies, Inc. 260 Cedar Hill Street, Marlborough, Mass. 01752 using the PhosphoSens® CSox-Sensor platform using 1 μM test article concentration and 1 mM ATP concentration (www.assayquant.com). Reactions were run in Corning, half-area 96-well, white flat round bottom polystyrene NBS microplates (Cat. #3642) after sealing using optically-clear adhesive film (TopSealA-Plus plate seal, PerkinElmer), applied with either a roller or a paddle to eliminate evaporation and resulting drift. The standard total reaction volume was 50 μL. All experiments were ran at 30° C. to control for fluctuations in ambient temperature. Plates were read from the top in kinetic mode (readings taken every 1 min), monitoring fluorescence intensity with filters using Ex 360 nm and Em 485 nm and a band width of 40 and 20 nm, respectively, and a gain of 80. Data analysis was performed using either Graphpad Prism or Gene Data Screener software.

MELK = biological target: T1, MELK (Homo sapiens, UniProt Q14680)
T1 construct: AssayQuant Technologies, Inc. (assay service)
Procedure: as §1

LATS2 = biological target: T2, LATS2 (Homo sapiens, UniProt Q9NRM7)
T2 sequence (Q9NRM7 1-1088): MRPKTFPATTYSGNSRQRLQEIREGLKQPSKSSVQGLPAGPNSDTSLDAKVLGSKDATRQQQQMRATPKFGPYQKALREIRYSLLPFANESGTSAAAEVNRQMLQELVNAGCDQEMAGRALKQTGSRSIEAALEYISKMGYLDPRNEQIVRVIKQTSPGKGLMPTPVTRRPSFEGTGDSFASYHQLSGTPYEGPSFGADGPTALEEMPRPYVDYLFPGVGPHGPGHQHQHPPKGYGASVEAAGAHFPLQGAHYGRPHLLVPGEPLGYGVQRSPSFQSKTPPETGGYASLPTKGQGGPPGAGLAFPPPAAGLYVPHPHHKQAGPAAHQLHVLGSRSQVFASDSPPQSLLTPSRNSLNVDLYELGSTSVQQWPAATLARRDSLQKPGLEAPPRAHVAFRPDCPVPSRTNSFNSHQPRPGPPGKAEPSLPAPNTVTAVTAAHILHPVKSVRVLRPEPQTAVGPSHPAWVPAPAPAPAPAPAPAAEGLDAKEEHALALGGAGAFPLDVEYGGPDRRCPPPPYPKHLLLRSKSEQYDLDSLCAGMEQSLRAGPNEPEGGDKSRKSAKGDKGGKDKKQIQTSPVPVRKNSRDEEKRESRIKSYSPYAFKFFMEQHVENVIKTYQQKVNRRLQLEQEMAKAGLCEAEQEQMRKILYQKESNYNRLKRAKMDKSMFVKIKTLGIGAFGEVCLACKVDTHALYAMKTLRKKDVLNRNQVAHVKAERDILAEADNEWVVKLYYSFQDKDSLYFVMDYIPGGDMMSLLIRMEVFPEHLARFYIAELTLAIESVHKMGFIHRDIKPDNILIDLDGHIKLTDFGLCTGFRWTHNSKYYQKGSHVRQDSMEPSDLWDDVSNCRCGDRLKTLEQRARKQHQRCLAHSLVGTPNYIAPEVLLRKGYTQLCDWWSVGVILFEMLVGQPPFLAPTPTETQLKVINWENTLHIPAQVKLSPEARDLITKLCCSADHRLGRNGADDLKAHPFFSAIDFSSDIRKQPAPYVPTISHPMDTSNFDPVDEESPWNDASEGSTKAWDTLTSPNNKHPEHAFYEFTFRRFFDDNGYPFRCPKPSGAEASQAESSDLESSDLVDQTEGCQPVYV
Procedure: as §1

ABL1 = ABL1 (Homo sapiens, UniProt P00519)
Procedure: as §1

AXL = biological target: T3, AXL (Homo sapiens, UniProt P30530)
T3 sequence (P30530 26-894): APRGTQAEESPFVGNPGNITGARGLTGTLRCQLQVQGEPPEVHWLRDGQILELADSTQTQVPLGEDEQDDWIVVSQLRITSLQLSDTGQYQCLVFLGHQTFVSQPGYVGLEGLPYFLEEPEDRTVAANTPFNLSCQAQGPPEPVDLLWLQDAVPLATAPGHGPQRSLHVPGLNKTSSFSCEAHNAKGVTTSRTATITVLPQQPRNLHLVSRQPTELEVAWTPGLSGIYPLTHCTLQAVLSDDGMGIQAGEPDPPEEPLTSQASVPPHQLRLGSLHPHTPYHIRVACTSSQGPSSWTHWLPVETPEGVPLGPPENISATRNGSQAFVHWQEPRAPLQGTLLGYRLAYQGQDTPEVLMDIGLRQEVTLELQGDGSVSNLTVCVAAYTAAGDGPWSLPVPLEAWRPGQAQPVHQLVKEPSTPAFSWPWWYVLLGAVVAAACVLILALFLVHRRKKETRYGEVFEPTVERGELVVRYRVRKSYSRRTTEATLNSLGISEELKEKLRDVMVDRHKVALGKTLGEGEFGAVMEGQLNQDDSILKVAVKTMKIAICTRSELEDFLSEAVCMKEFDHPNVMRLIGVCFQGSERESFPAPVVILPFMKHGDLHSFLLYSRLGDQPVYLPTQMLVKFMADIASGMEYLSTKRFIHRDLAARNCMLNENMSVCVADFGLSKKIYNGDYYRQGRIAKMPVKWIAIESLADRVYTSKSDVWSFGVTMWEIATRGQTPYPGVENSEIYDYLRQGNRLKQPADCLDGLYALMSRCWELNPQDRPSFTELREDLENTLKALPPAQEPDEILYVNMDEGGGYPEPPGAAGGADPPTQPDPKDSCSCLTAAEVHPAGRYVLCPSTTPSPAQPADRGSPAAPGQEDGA
Procedure: as §1

ABL1, sequence (P00519 whole entry): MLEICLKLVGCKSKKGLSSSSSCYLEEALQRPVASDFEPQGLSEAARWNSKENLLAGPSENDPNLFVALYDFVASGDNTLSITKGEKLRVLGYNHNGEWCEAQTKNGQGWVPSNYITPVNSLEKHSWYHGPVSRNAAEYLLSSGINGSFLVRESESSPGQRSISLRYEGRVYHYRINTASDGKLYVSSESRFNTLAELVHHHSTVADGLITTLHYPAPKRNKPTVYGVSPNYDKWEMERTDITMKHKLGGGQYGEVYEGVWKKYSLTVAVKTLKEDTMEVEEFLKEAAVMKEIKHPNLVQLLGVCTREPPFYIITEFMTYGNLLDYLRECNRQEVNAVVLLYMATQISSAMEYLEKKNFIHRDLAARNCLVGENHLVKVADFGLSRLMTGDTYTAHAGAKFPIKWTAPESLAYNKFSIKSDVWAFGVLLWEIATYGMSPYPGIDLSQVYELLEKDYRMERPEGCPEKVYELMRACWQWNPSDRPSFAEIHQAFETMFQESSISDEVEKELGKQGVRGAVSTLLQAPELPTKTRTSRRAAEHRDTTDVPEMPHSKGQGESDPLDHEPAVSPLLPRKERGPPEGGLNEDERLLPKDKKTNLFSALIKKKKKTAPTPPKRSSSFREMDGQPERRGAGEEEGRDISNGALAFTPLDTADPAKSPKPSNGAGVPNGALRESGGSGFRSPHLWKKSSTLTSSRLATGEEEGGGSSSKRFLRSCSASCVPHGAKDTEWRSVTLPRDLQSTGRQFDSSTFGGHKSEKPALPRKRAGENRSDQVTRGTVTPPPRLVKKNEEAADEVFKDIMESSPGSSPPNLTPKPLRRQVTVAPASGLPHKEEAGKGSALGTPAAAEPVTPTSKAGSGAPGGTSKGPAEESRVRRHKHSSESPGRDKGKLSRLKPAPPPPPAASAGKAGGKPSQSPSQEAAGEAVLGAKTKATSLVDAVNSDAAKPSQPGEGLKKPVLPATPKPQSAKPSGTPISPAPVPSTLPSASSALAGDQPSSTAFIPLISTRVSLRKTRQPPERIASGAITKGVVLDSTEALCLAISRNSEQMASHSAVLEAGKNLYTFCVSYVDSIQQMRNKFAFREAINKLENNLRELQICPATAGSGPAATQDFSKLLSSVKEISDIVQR
T1 sequence (Q14680 whole entry, species assumed): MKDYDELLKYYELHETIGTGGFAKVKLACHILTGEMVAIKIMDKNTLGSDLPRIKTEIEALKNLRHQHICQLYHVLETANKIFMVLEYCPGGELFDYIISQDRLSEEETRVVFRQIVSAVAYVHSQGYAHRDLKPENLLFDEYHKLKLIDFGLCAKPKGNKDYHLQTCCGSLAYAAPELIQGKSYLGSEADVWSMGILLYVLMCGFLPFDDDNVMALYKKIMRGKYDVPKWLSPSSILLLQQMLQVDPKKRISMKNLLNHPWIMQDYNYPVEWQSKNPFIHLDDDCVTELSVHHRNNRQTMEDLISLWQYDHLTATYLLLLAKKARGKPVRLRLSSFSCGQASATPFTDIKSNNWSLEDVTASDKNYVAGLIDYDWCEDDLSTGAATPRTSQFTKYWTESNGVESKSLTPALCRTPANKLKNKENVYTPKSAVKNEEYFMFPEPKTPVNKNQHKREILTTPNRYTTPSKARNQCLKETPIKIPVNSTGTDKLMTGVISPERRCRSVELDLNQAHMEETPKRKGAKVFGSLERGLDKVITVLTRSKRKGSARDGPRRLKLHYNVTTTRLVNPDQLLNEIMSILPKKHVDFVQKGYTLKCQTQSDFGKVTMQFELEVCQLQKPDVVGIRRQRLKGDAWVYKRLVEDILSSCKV
BMP2K/BIKE, sequence (Q9NSY1 whole entry): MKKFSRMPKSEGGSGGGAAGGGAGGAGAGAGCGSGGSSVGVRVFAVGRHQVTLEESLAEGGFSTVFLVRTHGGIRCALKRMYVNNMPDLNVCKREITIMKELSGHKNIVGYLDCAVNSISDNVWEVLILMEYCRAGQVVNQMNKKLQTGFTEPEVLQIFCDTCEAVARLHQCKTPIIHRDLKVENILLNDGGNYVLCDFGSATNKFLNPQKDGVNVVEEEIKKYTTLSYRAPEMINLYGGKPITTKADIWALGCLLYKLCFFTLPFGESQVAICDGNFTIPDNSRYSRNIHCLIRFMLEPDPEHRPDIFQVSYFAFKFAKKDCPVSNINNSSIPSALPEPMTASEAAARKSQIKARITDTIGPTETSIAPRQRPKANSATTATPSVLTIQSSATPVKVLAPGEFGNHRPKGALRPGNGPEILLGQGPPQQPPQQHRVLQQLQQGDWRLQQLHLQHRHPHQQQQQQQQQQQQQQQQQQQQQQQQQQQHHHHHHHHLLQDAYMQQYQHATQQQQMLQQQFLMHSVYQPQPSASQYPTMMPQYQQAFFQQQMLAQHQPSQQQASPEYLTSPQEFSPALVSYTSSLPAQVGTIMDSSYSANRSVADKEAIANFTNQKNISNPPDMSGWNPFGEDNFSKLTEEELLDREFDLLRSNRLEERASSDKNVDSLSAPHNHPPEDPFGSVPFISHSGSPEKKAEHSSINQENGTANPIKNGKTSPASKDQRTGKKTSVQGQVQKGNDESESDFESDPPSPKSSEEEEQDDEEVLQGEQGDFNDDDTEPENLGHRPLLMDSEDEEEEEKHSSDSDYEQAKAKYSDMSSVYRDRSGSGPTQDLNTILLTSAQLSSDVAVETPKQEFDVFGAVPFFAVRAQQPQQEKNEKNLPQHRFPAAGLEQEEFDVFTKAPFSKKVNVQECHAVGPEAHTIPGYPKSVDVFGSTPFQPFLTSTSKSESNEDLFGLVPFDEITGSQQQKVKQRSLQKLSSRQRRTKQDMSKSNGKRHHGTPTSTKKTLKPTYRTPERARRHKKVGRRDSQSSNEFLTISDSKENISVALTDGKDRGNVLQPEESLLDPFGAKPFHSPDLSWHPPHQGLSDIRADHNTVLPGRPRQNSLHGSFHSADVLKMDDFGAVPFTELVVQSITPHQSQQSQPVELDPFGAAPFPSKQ

| Structure (SMILES) | inhibition at 1 µM (BMP2K/BIKE) | inhibition at 1 µM (MELK) | inhibition at 1 µM (LATS2) | inhibition at 1 µM (ABL1) | inhibition at 1 µM (AXL) |
| --- | --- | --- | --- | --- | --- |
| C=CC(=O)N1CCCC(c2c(F)cc(C(N)=O)c3[nH]c4c(c23)CCCCC4)C1 (single isomer, unassigned) [Compound 5-6] | -18.6% | -27.6% | 6.3% | -14.6% | -20.3% |
| C=CC(=O)N1CCC[C@@H](c2c(F)cc(C(N)=O)c3[nH]c4c(c23)CCC4)C1 [Compound 10-2, (S)-8-(1-acryloylpiperidin-3-yl)-7-fluoro-1,2,3,4-tetrahydrocyclo-penta[b]indole-5-carboxamide] | -6.6% | 11.1% | -0.7% | 3.1% | -1.7% |
| C=CC(=O)N1CCC[C@@H](c2c(F)cc(C(N)=O)c3[nH]c4c(c23)CC2(CC4)CC2)C1 [Compound 6-2, (S)-5-(1-acryloylpiperidin-3-yl)-6-fluoro-1,2,4,9-tetrahydrospiro[carbazole-3,1′-cyclopropane]-8-carboxamide] | -12.3% | -14.5% | 1.5% | 2.5% | 1.5% |
